Laboratory results reported in publication PMC7385556 (ACS chemical biology, 2020).
Values joined by “and” are separate entries in the source; they are usually repeats but may differ in a detail not shown here. Identical values can stand only once.

Tested on: Mtb H37Rv mc^2 6230
Assay: MIC of compounds alone against Mtb H37Rv mc^2 6230
Format: cell-based, Mycobacterium tuberculosis
Details: compound alone, absence of KAN

## NC[C@H]1O[C@H](O[C@H]2[C@H](O)[C@@H](O[C@H]3O[C@H](CO)[C@@H](O)[C@H](N)[C@H]3O)[C@H](N)C[C@@H]2N)[C@H](O)[C@@H](O)[C@@H]1O [KAN, kanamycin]
  H37Rv mc^2 6230 MIC: <1 μg/mL and <1.72 μM
